Reference: doi:[…]/2021.10.07.463234v2 (biorxiv, 2021)
Where a name gives a salt, the structure may show the parent alone.

Molecular target: SARS-CoV-2 Mac1 (Severe acute respiratory syndrome coronavirus 2, UniProt P0DTD1)
Test: biochemical
Conditions: for inhibition at 100 µM: read-out: %inhibition; for %inhibition: 100 µM, inhibitor

Row | SMILES | inhibition at 100 µM | %inhibition
1 | C[N+]1(C)CCC(=C(c2ccccc2)c2ccccc2)CC1 [Diphemanil Methylsulfate] | 0% | –
2 | OC(CCCN1CCCCC1)(c1ccccc1)c1ccccc1 [Diphenidol HCl] | 3% | –
3 | CN1CCC(OC(c2ccccc2)c2ccccc2)CC1 [Diphenylpyraline HCl] | 0% | –
4 | OCCN(CCO)c1nc(N2CCCCC2)c2nc(N(CCO)CCO)nc(N3CCCCC3)c2n1 [Dipyridamole] | 26.7% | –
5 | CC[C@H]1OC(=O)[C@H](C)[C@@H](O[C@H]2C[C@@](C)(OC)[C@@H](O)[C@H](C)O2)[C@H](C)[C@@H](O[C@@H]2O[C@H](C)C[C@H](N(C)C)[C@H]2O)[C@](C)(O)C[C@@H](C)[C@@H]2N[C@@H](COCCOC)O[C@H]([C@H]2C)[C@]1(C)O [Dirithromycin] | 28.8% | –
6 | O=C(O)c1cc(=O)c2c(OCC(O)COc3cccc4oc(C(=O)O)cc(=O)c34)cccc2o1 [Disodium Cromoglycate] | 3.63% | –
7 | CC(C)N(CCC(C(N)=O)(c1ccccc1)c1ccccn1)C(C)C (centres unmarked) [Disopyramide Phosphate] | – | 0%
8 | CC(C)N(CCC(C(N)=O)(c1ccccc1)c1ccccn1)C(C)C (centres unmarked) [Disopyramide] | – | 8.31%
9 | CCN(CC)C(=S)SSC(=S)N(CC)CC [Disulfiram] | – | 0%
10 | O=C1c2c(O)cccc2Cc2cccc(O)c21 [Dithranol] | 18.7% | –
11 | CCCC(CCC)C(=O)O [Divalproex Sodium] | – | 5.124%
12 | CC(=O)O[C@@]12CO[C@@H]1C[C@H](O)[C@@]1(C)C(=O)[C@H](O)C3=C(C)[C@@H](OC(=O)[C@H](O)[C@@H](NC(=O)OC(C)(C)C)c4ccccc4)C[C@@](O)([C@@H](OC(=O)c4ccccc4)[C@H]21)C3(C)C [Docetaxel Trihydrate] | – | 6.628%
13 | CC(=O)O[C@@]12CO[C@@H]1C[C@H](O)[C@@]1(C)C(=O)[C@H](O)C3=C(C)[C@@H](OC(=O)[C@H](O)[C@@H](NC(=O)OC(C)(C)C)c4ccccc4)C[C@@](O)([C@@H](OC(=O)c4ccccc4)[C@H]21)C3(C)C [Docetaxel] | 11.6% | –
14 | CCCCC(CC)COC(=O)CC(C(=O)OCC(CC)CCCC)S(=O)(=O)O (centres unmarked) [Docusate Sodium] | 14.3% | –
15 | CN(CCOc1ccc(NS(C)(=O)=O)cc1)CCc1ccc(NS(C)(=O)=O)cc1 [Dofetilide] | 8.13% | –
16 | O=C(O[C@@H]1C[C@@H]2C[C@H]3C[C@H](C1)N2CC3=O)c1c[nH]c2ccccc12 [Dolasetron] | 7.05% | –
17 | C[C@@H]1CCO[C@H]2Cn3cc(C(=O)NCc4ccc(F)cc4F)c(=O)c(O)c3C(=O)N12 [Dolutegravir (GSK1349572)] | 9.9% | –
18 | CCCCCCCCCCCC[N+](C)(C)CCOc1ccccc1 [Domiphen Bromide] | 0.79% | –
19 | COc1cc2c(cc1OC)C(=O)C(CC1CCN(Cc3ccccc3)CC1)C2 (centres unmarked) [Donepezil HCl] | – | 0%
20 | COc1cc2c(cc1OC)C(=O)C(CC1CCN(Cc3ccccc3)CC1)C2 (centres unmarked) [Donepezil] | – | 5.95%
21 | NCCc1ccc(O)c(O)c1 [Dopamine HCl] | 39.1% | –
22 | Cc1ccc(-n2nc(C(C)(C)C)cc2NC(=O)Nc2ccc(OCCN3CCOCC3)c3ccccc23)cc1 [Doramapimod (BIRB 796)] | 0% | –
23 | C[C@@H](O)[C@H]1C(=O)N2C(C(=O)O)=C(S[C@@H]3CN[C@H](CNS(N)(=O)=O)C3)[C@H](C)[C@H]12 [Doripenem Hydrate] | – | 0%
24 | C[C@@H](O)[C@H]1C(=O)N2C(C(=O)O)=C(S[C@@H]3CN[C@H](CNS(N)(=O)=O)C3)[C@H](C)[C@H]12 [Doripenem] | – | 1.128%
25 | CN1CCN(c2ccc3nc(-c4c(N)c5c(F)cccc5[nH]c4=O)[nH]c3c2)CC1 [Dovitinib (TKI258) Lactate] | – | 26.03%

Row | SMILES | inhibition at 100 µM | %inhibition
26 | CN1CCN(c2ccc3nc(-c4c(N)c5c(F)cccc5[nH]c4=O)[nH]c3c2)CC1 [Dovitinib (TKI-258, CHIR-258)] | – | 50.41%
27 | CCN1CC(CCN2CCOCC2)C(c2ccccc2)(c2ccccc2)C1=O (centres unmarked) [Doxapram HCl] | – | 9.802%
28 | CCN1CC(CCN2CCOCC2)C(c2ccccc2)(c2ccccc2)C1=O (centres unmarked) [Doxapram] | – | 4.735%
29 | COc1cc2nc(N3CCN(C(=O)C4COc5ccccc5O4)CC3)nc(N)c2cc1OC (centres unmarked) [Doxazosin Mesylate] | 14.6% | –
30 | C=C1/C(=C\C=C2/CCC[C@]3(C)[C@@H]([C@H](C)/C=C/[C@H](C)C(C)C)CC[C@@H]23)C[C@@H](O)C[C@@H]1O [Doxercalciferol] | 0% | –
31 | C[C@H]1O[C@@H](n2cc(F)c(=O)[nH]c2=O)[C@H](O)[C@@H]1O [Doxifluridine] | 0% | –
32 | Cn1c(=O)c2c(ncn2CC2OCCO2)n(C)c1=O [Doxofylline] | 1.49% | –
33 | COc1cccc2c1C(=O)c1c(O)c3c(c(O)c1C2=O)CC(O)(C(=O)CO)CC3OC1CC(N)C(O)C(C)O1 (centres unmarked) [Doxorubicin (Adriamycin) HCl] | 18.3% | –
34 | C[C@H]1c2cccc(O)c2C(=O)C2=C(O)[C@]3(O)C(=O)C(C(N)=O)=C(O)[C@@H](N(C)C)[C@@H]3[C@@H](O)[C@@H]21 [Doxycycline Hyclate] | – | 21.8%
35 | C[C@H]1c2cccc(O)c2C(=O)C2=C(O)[C@]3(O)C(=O)C(C(N)=O)=C(O)[C@@H](N(C)C)[C@@H]3[C@@H](O)[C@@H]21 [Doxycycline] | – | 4.525%
36 | CN(C)CCOC(C)(c1ccccc1)c1ccccn1 (centres unmarked) [Doxylamine Succinate] | 4.4% | –
37 | CCCCc1oc2ccc(NS(C)(=O)=O)cc2c1C(=O)c1ccc(OCCCN(CCCC)CCCC)cc1 [Dronedarone HCl] | 0% | –
38 | O=C(CCCN1CC=C(n2c(=O)[nH]c3ccccc32)CC1)c1ccc(F)cc1 [Droperidol] | 1.08% | –
39 | OCC(O)CN1CCN(c2ccccc2)CC1 (centres unmarked) [Dropropizine] | 20.7% | –
40 | C[C@]12CCC(=O)C=C1[C@@H]1C[C@@H]1[C@H]1[C@@H]3[C@@H]4C[C@@H]4[C@@]4(CCC(=O)O4)[C@@]3(C)CC[C@@H]12 [Drospirenone] | 0% | –
41 | CNCC[C@H](Oc1cccc2ccccc12)c1cccs1 [Duloxetine HCl] | – | 0%
42 | CNCC[C@H](Oc1cccc2ccccc12)c1cccs1 [Duloxetine] | – | 8.877%
43 | C[C@]12C=CC(=O)N[C@@H]1CC[C@@H]1[C@@H]2CC[C@]2(C)[C@@H](C(=O)Nc3cc(C(F)(F)F)ccc3C(F)(F)F)CC[C@@H]12 [Dutasteride] | 12% | –
44 | C[C@H](Nc1ncnc2nc[nH]c12)c1cc2cccc(Cl)c2c(=O)n1-c1ccccc1 [Duvelisib (IPI-145, INK1197)] | 2.52% | –
45 | CCCCOc1ccc(C(=O)CCN2CCCCC2)cc1 [Dyclonine HCl] | 0% | –
46 | Cn1c(=O)c2c(ncn2CC(O)CO)n(C)c1=O (centres unmarked) [Dyphylline] | 0.0817% | –
47 | CC(C)c1cc2c(cc1S(=O)(=O)O)[C@@]1(C)CCC[C@@](C)(C(=O)O)[C@@H]1CC2 [Ecabet sodium] | 10.4% | –
48 | CC1=NN(c2ccccc2)C(=O)C1 [Edaravone] | 5.75% | –
49 | CN1CCc2nc(C(=O)N[C@@H]3C[C@@H](C(=O)N(C)C)CC[C@@H]3NC(=O)C(=O)Nc3ccc(Cl)cn3)sc2C1 [Edoxaban tosylate Monohydrate] | – | 20.23%
50 | CN1CCc2nc(C(=O)N[C@@H]3C[C@@H](C(=O)N(C)C)CC[C@@H]3NC(=O)C(=O)Nc3ccc(Cl)cn3)sc2C1 [Edoxaban] | – | 4.891%
